# Measured values published in US8697629B2, “Modulation of intracellular signaling” (Angstrom Pharmaceuticals, Inc., priority 2010, dated 2014).
# Legend:
# SKOV3 cells = test: Boyden chamber chemotaxis/migration of SKOV3 cells; format: cell-based
# Description: A2780 (FIG. 10a) and SKOV3 (FIG. 10b) cells were incubated with the indicated concentrations of Å6 peptide for 30 min at 37° C. Aliquots representing 6,000 cells were placed on quadruplicate, CnI-coated filters (8 μm pores) in Boyden chambers and the cells allowed to migrate overnight in response to 10 ng/ml VEGF in NIH3T3-conditioned media containing the indicated concentrations of Å6. Upon completion of migration, the apical surfaces of the membranes were wiped clean and the migrating cells on the basal surface were stained with Geimsa stain and the cells present in representative fields of the membranes counted. Data represent the averages+/−standard deviations obtained from the replicate filters. […] This provides further confirmation that CD44 is the target for the Å6 peptide.
# SKOV3 cells are harvested by trypsinization and washed once with RPMI−0.5% BSA. Next, the cells are re-suspended in RPMI+0.5% BSA @ 6E4/mL (6000 cells/100 μL). The peptide is pre-treated with 500 μL of cells added to 500 μL peptide NASAPPEE (2× concentration, final conc. at 100, 10, 1, 0.1, 0.01, 0.001 uM) and the mixture incubated 30 minutes at 37° C., under 5% CO2. The Boyden chamber is assembled by: Placing in the bottom chambers: 220 μL of serum/BSA free DMEM or NIH3T3CM+10 ng/ml VEGF or NIH3T3CM+10 ng/ml VEGF+peptide. Place 8 μm filters on the top of the bottom chambers. The 8 μm filters are coated with 1 mg/ml collagen I at 4° C. overnight, washed with PBS twice, air dry before use. Add 200 μL of cells with or without peptide pretreatment to the top of Boyden chamber. Note that the peptide is in both top and bottom chambers. Cells migrate overnight at 37° C., under 5% CO2 in incubator. Next, Boyden chambers are disassembled the and filters collected. The cells on the filters after collection are treated with −20° C. methanol for 3 minutes at room temperature and stained with 30% Geimsa for 7 minutes at room temperature, and washed with water twice. The filters are mounted on slides, air dried and the cells counted.
# Cell numbers were obtained by counting the cells in four fields of filters using a 40× objective. The cells migrating into the bottom chambers were also counted as follows: a) 200 μL fluid in the bottom chamber was transferred to a well of 96-well plate; b) The plate was centrifuged at 1200 rpm for 5 minutes; c) 180 μL of supernatant was removed; d) The cell pellet was resuspended with the remaining 20 μL fluid and the cells counted using a hemocytometer. […] This compares favorably to the Å6 peptide which is effective between 5 μM and 100 nM.
# FAK = FAK phosphorylation in SKOV3 cells, immunoblot and densitometry; format: cell-based
# Description: Cells were detached from their culture vessels by brief trypsinization, suspended in complete media and centrifuged at 250×g for 10 min at room temperature. The cell pellets were suspended in Dulbeco's phosphate buffered saline (DPBS) and re-centrifuged for a total of three washes. The cells were then re-suspended at 3.33E5/ml in 24 ml of either RPMI containing 0.5% BSA (Sigma Chem. Co. #A0336) (RPMI/BSA) or the conditioned media of growing NIH3T3 fibroblasts (10% FBS in DMEM) supplemented with 10 ng/ml vascular endothelial growth factor (VEGF) (CMN). The cells were then treated with or without 100 ug/ml soluble hyaluronic acid (HA; human umbilical, Calbiochem #385902) for 30 min at 37° C. under 5% CO2. Aliquots representing 2E6 cells were then plated into 10 cm culture dishes and A6 added to yield final concentrations of 0, 10, 100 and 1000 nM. The cells were cultured overnight (18 hr) at 37° C. under 5% CO2.
# After 18 hr of treatment, the media were aspirated from the 10 cm dishes and saved. The plates were washed 3 times with 4 ml of ice-cold DPBS which were pooled with the reserved non-adherent cells. The non-adherent cells were centrifuged at 250×g for 10 min at 4° C., washed twice with cold DPBS, drained and lysed in 50 ul of cold RIPA buffer (ThermoScientific #89901) containing cocktails of broad spectrum phosphatase inhibitors (Calbiochem #524625; used at 2× final concentration) and protease inhibitors (Sigma #P8340) (RIPA/inh.). The 10 cm dishes were drained of remaining wash and the adherent cells lysed by scraping in 200 μL of cold RIPA/inh. For each test condition, the lysates of the non-adherent and adherent populations were combined, vortexed and then centrifuged at 14,000 rpm at 4° C. for 20 min. Aliquots of the cleared lysates were frozen at −80° C. immediately. A small aliquot was reserved for total protein analysis using a BCA Protein Assay Kit (Calbiochem #71285-3).
# Samples representing 20 μg of total protein of each lysate were solubilized in the presence of 50 mM Tris pH 6.8, 10% glycerol, 2% SDS and 100 mM DTT for 5 min at 95° C. and then loaded onto 10-20% acrylamide gels (BioRad #345-0044, Tris-HCl, 1 mm, 26 well, 15 μL/well). Electrophoresis was performed using Laemli electrophoresis buffer (0.1% SDS, 25 mM Tris, 192 mM glycine) at 200 V, constant voltage, for one hour. Upon completion of electrophoresis, the proteins were transferred to Immun-Blot PVDF membranes (BioRad #162-0238) in ice-cold 20% methanol in 25 mM Tris, 192 mM glycine for 2 hr at 0.5 Amps, constant current/blotting apparatus. […]
# The integrated densities (id) of the bands of interest were measured using Image J software (NIH). […]
substance,measurement,setting,value
acetyl-Lys-Pro-Ser-Ser-Pro-Pro-Glu-Glu-NH2 (Ac-KPSSPPEE-NH2) [Å6],SKOV3 migration,"SKOV3 cells; 10 ng/ml VEGF in NIH3T3-conditioned media, overnight",strong inhibition
same,"cell migration inhibition, lower end of effective concentration range",SKOV3 cells; SKOV3,100 nM
same,"cell migration inhibition, upper end of effective concentration range",SKOV3 cells; SKOV3,5 µM
same,FAK phosphorylation,FAK; CM/V media,enhanced
same,FAK phosphorylation in the presence of HA,FAK; RPMI/BSA,restored
same,pFAK/FAK ratios,"FAK; SKOV3, all conditions, Y397, Y576/577, Y925",enhanced pFAK/FAK ratios in a dose-dependent manner
